Molecular target: T1, hFXR (Homo sapiens, UniProt Q96RI1)
T1 construct: expressed in transfected cells; host or cells: CV-1 cells
T1 sequence (Q96RI1 1-486): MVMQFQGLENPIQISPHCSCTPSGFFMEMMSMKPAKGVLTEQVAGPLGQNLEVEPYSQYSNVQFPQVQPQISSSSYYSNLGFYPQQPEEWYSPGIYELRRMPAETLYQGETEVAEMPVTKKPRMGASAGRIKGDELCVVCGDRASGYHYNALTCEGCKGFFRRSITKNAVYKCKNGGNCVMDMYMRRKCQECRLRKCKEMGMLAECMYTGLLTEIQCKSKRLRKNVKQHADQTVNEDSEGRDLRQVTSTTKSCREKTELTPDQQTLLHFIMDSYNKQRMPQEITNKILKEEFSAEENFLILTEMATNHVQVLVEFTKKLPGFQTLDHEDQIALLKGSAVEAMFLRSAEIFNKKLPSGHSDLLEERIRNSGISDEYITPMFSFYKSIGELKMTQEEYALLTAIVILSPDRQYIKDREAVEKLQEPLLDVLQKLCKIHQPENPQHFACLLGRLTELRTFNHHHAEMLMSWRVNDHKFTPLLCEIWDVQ
T1 sequence (P19793 1-462 partner): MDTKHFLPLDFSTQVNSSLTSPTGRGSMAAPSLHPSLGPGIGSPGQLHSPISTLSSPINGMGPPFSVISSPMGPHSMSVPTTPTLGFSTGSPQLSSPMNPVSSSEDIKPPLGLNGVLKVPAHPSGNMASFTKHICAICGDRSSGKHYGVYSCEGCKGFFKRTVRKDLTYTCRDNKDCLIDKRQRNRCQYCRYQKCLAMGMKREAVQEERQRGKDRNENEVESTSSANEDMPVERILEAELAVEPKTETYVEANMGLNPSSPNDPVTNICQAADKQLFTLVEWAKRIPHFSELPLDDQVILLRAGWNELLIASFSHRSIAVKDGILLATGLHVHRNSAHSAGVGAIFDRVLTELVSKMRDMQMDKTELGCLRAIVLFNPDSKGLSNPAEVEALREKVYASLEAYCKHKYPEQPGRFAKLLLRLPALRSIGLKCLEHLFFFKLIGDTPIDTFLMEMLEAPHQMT
Experiment: In Vitro FXR Assay (TK): hFXR/hRXR TK-ECRE-luc reporter in transfected CV-1 cells
Format: cell-based
Settings: CV-1 cells transfected with hFXR, hRXR, 18 hrs incubation, luminescence, maximum efficacy <25% of Fexarmine control also classified as ‘+’
Experimental: Example B-1: In Vitro FXR Assay (TK)
CV-1 cells were seeded at a density of 2,000,000 cells in a T175 flask with DMEM+10% charcoal double-stripped FBS and incubated at 37° C. in 5% CO2 for 18 h (O/N).
After 18 h of incubation, the medium in the T175 flask was changed with fresh DMEM+10% charcoal super-stripped serum. In a polypropylene tube, 2500 μL OptiMEM (Life Technologies, Cat #31985-062) was combined with expression plasmids for hFXR, hRXR, TK-ECRE-luc and pCMX-YFP. The tube was then briefly vortexed and incubated at room temperature for 5 minutes. Transfection reagent (X-tremeGENE HP from Roche, Cat #06 366 236 001) was added to the OptiMEM/plasmid mixture vortexed and incubated at room temperature for 20 minutes. Following incubation, the transfection reagent/DNA mixture complex was added to cells in the T175 flask and the cells were incubated at 37° C. in 5% CO2 for 18 h (0/N).
Compounds were serially diluted in DMSO and added to transfected CV-1 cells. The cells were then incubated for 18 hrs. The next day cells were lysed and examined for luminescence.

`COc1ccc([C@H]2CC[C@H](CN(c3cccc(-c4cc(C)on4)c3)C(=O)[C@H]3CC[C@H](O)CC3)CC2)cc1C` [Compound 9.08, trans-4-Hydroxy-N-((trans-4-(4-methoxy-3-methylphenyl)cyclohexyl)methyl)-N-(3-(5-methylisoxazol-3-yl)phenyl)cyclohexanecarboxamide] and `COc1ccc([C@H]2CC[C@H](CN(c3cccc(-c4cc(C5CC5)on4)c3)C(=O)[C@H]3CC[C@H](O)CC3)CC2)cc1C` [Compound 9.14, trans-N-(3-(5-Cyclopropylisoxazol-3-yl)phenyl)-4-hydroxy-N-((trans-4-(4-methoxy-3-methylphenyl)cyclohexyl)methyl) cyclohexanecarboxamide] cannot be ordered by EC50: at most 500 nM for the first, at most 500 nM for the second.

`COc1ccc([C@H]2CC[C@H](CN(c3cccc(-n4cc(C)nn4)c3)C(=O)[C@H]3CC[C@H](O)CC3)CC2)cc1C` [Compound 9.09, trans-4-Hydroxy-N-((trans-4-(4-methoxy-3-methylphenyl)cyclohexyl)methyl)-N-(3-(4-methyl-1H-1,2,3-triazol-1-yl)phenyl)cyclohexanecarboxamide] and `COc1ccc([C@H]2CC[C@H](CN(c3cccc(-n4ncc(C)n4)c3)C(=O)[C@H]3CC[C@H](O)CC3)CC2)cc1C` [Compound 9.10, trans-4-Hydroxy-N-((trans-4-(4-methoxy-3-methylphenyl)cyclohexyl)methyl)-N-(3-(4-methyl-2H-1,2,3-triazol-2-yl)phenyl)cyclohexanecarboxamide] cannot be ordered by EC50: at least 1000 nM for the first, at least 1000 nM for the second.

`COc1ccc([C@H]2CC[C@H](CN(c3cccc(-c4noc(C)n4)c3)C(=O)[C@H]3CC[C@H](O)CC3)CC2)cc1C` [Compound 9.11, trans-4-Hydroxy-N-((trans-4-(4-methoxy-3-methylphenyl)cyclohexyl)methyl)-N-(3-(5-methyl-1,2,4-oxadiazol-3-yl)phenyl)cyclohexanecarboxamide] and `COc1ccc([C@H]2CC[C@H](CN(c3cccc(-c4coc(C(C)C)n4)c3)C(=O)[C@H]3CC[C@H](O)CC3)CC2)cc1C` [Compound 10.04, trans-4-Hydroxy-N-(3-(2-isopropyloxazol-4-yl)phenyl)-N-((trans-4-(4-methoxy-3-methylphenyl)cyclohexyl)methyl) cyclohexanecarboxamide] cannot be ordered by EC50: 500 to 1000 nM for the first, at most 500 nM for the second.

`COc1ccc([C@H]2CC[C@H](CN(c3cccc(-c4cnc(C5CC5)o4)c3)C(=O)[C@H]3CC[C@H](O)CC3)CC2)cc1C` [Compound 9.12, trans-N-(3-(2-Cyclopropyloxazol-5-yl)phenyl)-4-hydroxy-N-((trans-4-(4-methoxy-3-methylphenyl)cyclohexyl)methyl) cyclohexanecarboxamide] and `COc1ccc([C@H]2CC[C@H](CN(c3cccc(-c4cc(C5CC5)no4)c3)C(=O)[C@H]3CC[C@H](O)CC3)CC2)cc1C` [Compound 9.13, trans-N-(3-(3-cyclopropylisoxazol-5-yl)phenyl)-4-hydroxy-N-((trans-4-(4-methoxy-3-methylphenyl)cyclohexyl)methyl) cyclohexanecarboxamide] cannot be ordered by EC50: at most 500 nM for the first, at most 500 nM for the second.

`COc1ccc([C@H]2CC[C@H](CN(c3cccc(-c4coc(C5CC5)n4)c3)C(=O)[C@H]3CC[C@H](O)CC3)CC2)cc1C` [Compound 9.15] and `COc1ccc([C@H]2CC[C@H](CN(c3cccc(-c4coc(C5CC5)n4)c3)C(=O)[C@H]3CC[C@H](O)CC3)CC2)cc1C#N` [Compound 10.11, trans-N-((trans-4-(3-Cyano-4-methoxyphenyl)cyclohexyl)methyl)-N-(3-(2-cyclopropyloxazol-4-yl)phenyl)-4-hydroxycyclohexanecarboxamide] cannot be ordered by EC50: at most 500 nM for the first, at most 500 nM for the second.

`COc1ccc(C23CCC(CN(c4cccc(-c5cc(C6CC6)ns5)c4)C(=O)[C@H]4CC[C@H](O)CC4)(CC2)CC3)cc1C` [Compound 10.01, trans-N-(3-(3-Cyclopropylisothiazol-5-yl)phenyl)-4-hydroxy-N-((4-(4-methoxy-3-methylphenyl)bicyclo[2.2.2]octan-1-yl)methyl)cyclohexanecarboxamide] and `CN(C)c1ccc(C23CCC(CN(c4cccc(-c5coc(C6CC6)n5)c4)C(=O)[C@H]4CC[C@H](O)CC4)(CC2)CC3)cn1` [Compound 10.03, trans-N-(3-(2-Cyclopropyloxazol-4-yl)phenyl)-N-((4-(6-(dimethylamino)pyridine-3-yl)bicyclo[2.2.2]octan-1-yl)methyl)-4-hydroxycyclohexanecarboxamide] cannot be ordered by EC50: at most 500 nM for the first, at most 500 nM for the second.

`CN(C)c1ccc([C@H]2CC[C@H](CN(c3cccc(-c4coc(C5CC5)n4)c3)C(=O)[C@H]3CC[C@H](O)CC3)CC2)cn1` [Compound 10.02, trans-N-(3-(2-Cyclopropyloxazol-4-yl)phenyl)-N-((trans-4-(6-(dimethylamino)pyridine-3-yl)cyclohexyl)methyl)-4-hydroxycyclohexanecarboxamide] and `COc1ccc([C@H]2CC[C@H](CN(c3cccc(-c4coc(C5CC5)n4)c3)C(=O)[C@H]3CC[C@H](O)CC3)CC2)nc1C` [Compound 10.06, trans-N-(3-(2-Cyclopropyloxazol-4-yl)phenyl)-4-hydroxy-N-((trans-4-(5-methoxy-6-methylpyridin-2-yl)cyclohexyl)methyl) cyclohexanecarboxamide] cannot be ordered by EC50: at most 500 nM for the first, at most 500 nM for the second.

Compared with `COc1ccc([C@H]2CC[C@H](CN(c3cccc(-c4coc(C(C)C)n4)c3)C(=O)[C@H]3CC[C@H](O)CC3)CC2)nc1C` [Compound 10.05, trans-4-Hydroxy-N-(3-(2-isopropyloxazol-4-yl)phenyl)-N-((trans-4-(5-methoxy-6-methylpyridin-2-yl)cyclohexyl)methyl) cyclohexanecarboxamide], `COc1ccc([C@H]2CC[C@@H](CN(c3cccc(-c4coc(C5CC5)n4)c3)C(=O)[C@H]3CC[C@H](O)CC3)CC2)nc1C` [Compound 10.10, trans-N-(3-(2-Cyclopropyloxazol-4-yl)phenyl)-4-hydroxy-N-((cis-4-(5-methoxy-6-methylpyridin-2-yl)cyclohexyl)methyl) cyclohexanecarboxamide] is higher in EC50: at most 500 nM for the first, at least 1000 nM for the second.

`COc1ccc([C@H]2CC[C@H](CN(c3cc(-c4coc(C5CC5)n4)ccn3)C(=O)[C@H]3CC[C@H](O)CC3)CC2)cc1C` [Compound 10.07, trans-N-(4-(2-Cyclopropyloxazol-4-yl)pyridine-2-yl)-4-hydroxy-N-((trans-4-(4-methoxy-3-methylphenyl)cyclohexyl)methyl) cyclohexanecarboxamide] and `COc1ccc([C@H]2CC[C@H](CN(c3cc(-c4coc(C5CC5)n4)ccn3)C(=O)[C@H]3CC[C@H](O)CC3)CC2)nc1C` [Compound 10.09, trans-N-(4-(2-Cyclopropyloxazol-4-yl)pyridine-2-yl)-4-hydroxy-N-((trans-4-(5-methoxy-6-methylpyridin-2-yl)cyclohexyl)methyl) cyclohexanecarboxamide] cannot be ordered by EC50: at most 500 nM for the first, at most 500 nM for the second.

`COc1ccc([C@H]2CC[C@H](CN(c3cccc(-c4cc(C5CC5)ns4)c3)C(=O)[C@H]3CC[C@H](O)CC3)CC2)nc1C` [Compound 10.08, trans-N-(3-(3-Cyclopropylisothiazol-5-yl)phenyl)-4-hydroxy-N-((trans-4-(5-methoxy-6-methylpyridin-2-yl)cyclohexyl)methyl) cyclohexanecarboxamide] was tested, and the EC50 was at most 500 nM.
